{"source": "PubChem BioAssay (NCI)", "assay_in_all_cases": "NCI tumour cell line growth inhibition, 48 h", "key": {"LXFL 529 NSCLC": {"system": "LXFL 529 NSCLC"}, "RXF-631 renal": {"system": "RXF-631 renal"}, "P388 leukemia": {"system": "P388 leukemia"}, "P388/ADR leukemia": {"system": "P388/ADR leukemia"}, "SN12K1 renal": {"system": "SN12K1 renal"}}, "note": "Where “and” joins values, the source holds several entries; their conditions need not be identical. Identical values can stand only once.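 Tested at 5 concentrations; 48 h exposure; 96-well plates; endpoints linearly interpolated, else capped at highest concentration. At the GI50, growth is halved. TGI: concentration producing complete growth inhibition.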", "data": [{"smiles": "N#CC(NC12CC3CC(CC(C3)C1)C2)c1ccccc1C(F)(F)F", "note": "(stereo not drawn)", "values": [{"measurement": "TGI", "setting": "LXFL 529 NSCLC", "value": "> 100", "unit": "µM"}]}, {"smiles": "O=P(Nc1ccc(Cl)cc1)(Oc1ccccc1)N(CCCl)CCCl", "note": "(stereo not drawn)", "values": [{"measurement": "TGI", "setting": "LXFL 529 NSCLC", "value": "> 100", "unit": "µM"}, {"measurement": "TGI", "setting": "RXF-631 renal", "value": "> 100", "unit": "µM"}]}, {"smiles": "O=C1CCC(c2ccc(Cl)cc2)=NN1c1nsc2ccccc12", "values": [{"measurement": "TGI", "setting": "LXFL 529 NSCLC", "value": 81.4, "unit": "µM"}]}, {"smiles": "CC1NC(=O)CC(c2ccccc2)N(N=O)C1c1ccccc1", "note": "(stereo not drawn)", "values": [{"measurement": "TGI", "setting": "P388 leukemia", "value": "> 57.8", "unit": "µM"}, {"measurement": "TGI", "setting": "P388/ADR leukemia", "value": "> 60.2", "unit": "µM"}, {"measurement": "TGI", "setting": "SN12K1 renal", "value": 48.3, "unit": "µM"}]}, {"smiles": "COC1C=CC(O)C(CO)O1", "note": "(stereo not drawn)", "values": [{"measurement": "TGI", "setting": "LXFL 529 NSCLC", "value": "> 100", "unit": "µM"}]}, {"smiles": "NC(N)=N/N=C/c1c[nH]c2ccccc12", "values": [{"measurement": "TGI", "setting": "LXFL 529 NSCLC", "value": "> 100", "unit": "µM"}]}, {"smiles": "COc1cc(/C=C(\\C#N)C(N)=O)cc(Br)c1O", "values": [{"measurement": "GI50", "setting": "P388 leukemia", "value": "85.3 µM and 44.5 µM"}, {"measurement": "TGI", "setting": "P388 leukemia", "value": "> 100", "unit": "µM"}, {"measurement": "TGI", "setting": "P388/ADR leukemia", "value": "> 100", "unit": "µM"}, {"measurement": "TGI", "setting": "SN12K1 renal", "value": "> 100", "unit": "µM"}]}]}
